From ChEMBL document CHEMBL5506031, “Design, Synthesis, Bioactive Evaluation, and Molecular Dynamics Simulation of Novel 4H-Pyrano[3,2-c]pyridine Analogues as Potential Sterol 14α-Demethylase (CYP51) Inhibitors” (J Med Chem, 2024)
In brackets after ≈: the same amount, converted by molar mass.

tested on: Aspergillus niger; experiment: Antifungal activity against Aspergillus niger; type: functional

Row | MIC [µg/mL] | Compound
1 | 125 (≈ 335 µM) | COc1ccc(C2c3ccc4ncccc4c3Oc3nc[nH]c(=S)c32)cc1 (centres undefined)
2 | 125 (≈ 309 µM) | COc1ccc(C2c3ccc4ccccc4c3Oc3[nH]c(=S)[nH]c(=S)c32)cc1 (centres undefined)

tested on: Sclerotinia sclerotiorum; experiment: Fungicidal activity against Sclerotinia sclerotiorum assessed as fungal inhibitory rate at 16 ug/ml relative to control; type: functional

Row | Compound | inhibition at 16 µg/mL [%]
3 | N#CC1=C(N)OC2=C(CN(C(=O)c3ccco3)C/C2=C\c2cccs2)C1c1cccs1 (centres undefined) | 27.9
4 | N#CC1=C(N)OC2=C(CN(C(=O)c3cccs3)C/C2=C\c2ccc(Br)o2)C1c1ccc(Br)o1 (centres undefined) | 62.7
5 | CN1CC2=C(OC(N)=C(C#N)C2c2ccc(Br)o2)/C(=C/c2ccc(Br)o2)C1 (centres undefined) | 87.2
6 | COC(=O)C1=C(N)OC2=C(CN(C(=O)c3cccs3)C/C2=C\c2ccc(Br)s2)C1c1ccc(Br)s1 (centres undefined) | 68.5
7 | Cc1ccc(/C=C2\CN(C(=O)c3cccs3)CC3=C2OC(N)=C(C#N)C3c2ccc(C)s2)s1 (centres undefined) | 21.1
8 | N#CC1=C(N)OC2=C(CN(C(=O)c3ccco3)C/C2=C\c2ccc(Br)o2)C1c1ccc(Br)o1 (centres undefined) | 55.2

tested on: Colletotrichum lagenaria; experiment: Fungicidal activity against Colletotrichum lagenarium assessed as fungal inhibitory rate at 16 ug/ml relative to control; type: functional

Row | Compound | inhibition at 16 µg/mL [%]
9 | COC(=O)C1=C(N)OC2=C(CN(C(=O)c3cccs3)C/C2=C\c2ccc(Br)s2)C1c1ccc(Br)s1 (centres undefined) | 66.2
10 | Cc1ccc(/C=C2\CN(C(=O)c3cccs3)CC3=C2OC(N)=C(C#N)C3c2ccc(C)s2)s1 (centres undefined) | 20.5
11 | N#CC1=C(N)OC2=C(CN(C(=O)c3ccco3)C/C2=C\c2ccc(Br)o2)C1c1ccc(Br)o1 (centres undefined) | 55.8

tested on: Botrytis cinerea; experiment: Fungicidal activity against Botrytis cinerea assessed as fungal inhibitory rate at 16 ug/ml relative to control; type: functional

Row | Compound | inhibition at 16 µg/mL [%]
12 | N#CC1=C(N)OC2=C(CN(C(=O)c3ccco3)C/C2=C\c2cccs2)C1c1cccs1 (centres undefined) | 62.7
13 | N#CC1=C(N)OC2=C(CN(C(=O)c3cccs3)C/C2=C\c2ccc(Br)o2)C1c1ccc(Br)o1 (centres undefined) | 100
14 | CN1CC2=C(OC(N)=C(C#N)C2c2ccc(Br)o2)/C(=C/c2ccc(Br)o2)C1 (centres undefined) | 72.8
15 | COC(=O)C1=C(N)OC2=C(CN(C(=O)c3cccs3)C/C2=C\c2ccc(Br)s2)C1c1ccc(Br)s1 (centres undefined) | 100
16 | Cc1ccc(/C=C2\CN(C(=O)c3cccs3)CC3=C2OC(N)=C(C#N)C3c2ccc(C)s2)s1 (centres undefined) | 51.8
17 | N#CC1=C(N)OC2=C(CN(C(=O)c3ccco3)C/C2=C\c2ccc(Br)o2)C1c1ccc(Br)o1 (centres undefined) | 100

tested on: Penicillium digitatum; experiment: Fungicidal activity against Penicillium digitatum assessed as fungal inhibitory rate at 16 ug/ml relative to control; type: functional

Row | Compound | inhibition at 16 µg/mL [%]
18 | N#CC1=C(N)OC2=C(CN(C(=O)c3cccs3)C/C2=C\c2ccc(Br)o2)C1c1ccc(Br)o1 (centres undefined) | 54.5
19 | CN1CC2=C(OC(N)=C(C#N)C2c2ccc(Br)o2)/C(=C/c2ccc(Br)o2)C1 (centres undefined) | 78.2
20 | COC(=O)C1=C(N)OC2=C(CN(C(=O)c3cccs3)C/C2=C\c2ccc(Br)s2)C1c1ccc(Br)s1 (centres undefined) | 61
21 | Cc1ccc(/C=C2\CN(C(=O)c3cccs3)CC3=C2OC(N)=C(C#N)C3c2ccc(C)s2)s1 (centres undefined) | 20.1
22 | N#CC1=C(N)OC2=C(CN(C(=O)c3ccco3)C/C2=C\c2ccc(Br)o2)C1c1ccc(Br)o1 (centres undefined) | 49

tested on: Fusarium oxysporum; experiment: Fungicidal activity against Fusarium oxysporum assessed as fungal inhibitory rate at 16 ug/ml relative to control; type: functional

Row | Compound | inhibition at 16 µg/mL [%]
23 | N#CC1=C(N)OC2=C(CN(C(=O)c3ccco3)C/C2=C\c2cccs2)C1c1cccs1 (centres undefined) | 23.8
24 | N#CC1=C(N)OC2=C(CN(C(=O)c3cccs3)C/C2=C\c2ccc(Br)o2)C1c1ccc(Br)o1 (centres undefined) | 55.2
25 | CN1CC2=C(OC(N)=C(C#N)C2c2ccc(Br)o2)/C(=C/c2ccc(Br)o2)C1 (centres undefined) | 52.2
26 | COC(=O)C1=C(N)OC2=C(CN(C(=O)c3cccs3)C/C2=C\c2ccc(Br)s2)C1c1ccc(Br)s1 (centres undefined) | 62.9
27 | Cc1ccc(/C=C2\CN(C(=O)c3cccs3)CC3=C2OC(N)=C(C#N)C3c2ccc(C)s2)s1 (centres undefined) | 20.3
28 | N#CC1=C(N)OC2=C(CN(C(=O)c3ccco3)C/C2=C\c2ccc(Br)o2)C1c1ccc(Br)o1 (centres undefined) | 50.5

tested on: Botrytis cinerea; experiment: Fungicidal activity against Botrytis cinerea assessed as fungal growth reduction; type: functional, organism-based

Row | Compound | EC50 [µg/mL]
29 | N#CC1=C(N)OC2=C(CN(C(=O)c3cccs3)C/C2=C\c2ccc(Br)o2)C1c1ccc(Br)o1 (centres undefined) | 1.3 (≈ 2.21 µM)
30 | COC(=O)C1=C(N)OC2=C(CN(C(=O)c3cccs3)C/C2=C\c2ccc(Br)s2)C1c1ccc(Br)s1 (centres undefined) | 1.04 (≈ 1.59 µM)
31 | N#CC1=C(N)OC2=C(CN(C(=O)c3ccco3)C/C2=C\c2ccc(Br)o2)C1c1ccc(Br)o1 (centres undefined) | 1.71 (≈ 2.98 µM)

tested on: not listed separately; experiment: Inhibition of Botrytis cinerea CYP51 by ELISA

Row | IC50 [µg/mL] | Compound
32 | 1.522 (≈ 2.58 µM) | N#CC1=C(N)OC2=C(CN(C(=O)c3cccs3)C/C2=C\c2ccc(Br)o2)C1c1ccc(Br)o1 (centres undefined)
33 | 1.288 (≈ 1.97 µM) | COC(=O)C1=C(N)OC2=C(CN(C(=O)c3cccs3)C/C2=C\c2ccc(Br)s2)C1c1ccc(Br)s1 (centres undefined)
34 | 1.86 (≈ 3.24 µM) | N#CC1=C(N)OC2=C(CN(C(=O)c3ccco3)C/C2=C\c2ccc(Br)o2)C1c1ccc(Br)o1 (centres undefined)
